Biological target: T1, MER (Homo sapiens, UniProt Q12866)
T1 sequence (Q12866 21-999): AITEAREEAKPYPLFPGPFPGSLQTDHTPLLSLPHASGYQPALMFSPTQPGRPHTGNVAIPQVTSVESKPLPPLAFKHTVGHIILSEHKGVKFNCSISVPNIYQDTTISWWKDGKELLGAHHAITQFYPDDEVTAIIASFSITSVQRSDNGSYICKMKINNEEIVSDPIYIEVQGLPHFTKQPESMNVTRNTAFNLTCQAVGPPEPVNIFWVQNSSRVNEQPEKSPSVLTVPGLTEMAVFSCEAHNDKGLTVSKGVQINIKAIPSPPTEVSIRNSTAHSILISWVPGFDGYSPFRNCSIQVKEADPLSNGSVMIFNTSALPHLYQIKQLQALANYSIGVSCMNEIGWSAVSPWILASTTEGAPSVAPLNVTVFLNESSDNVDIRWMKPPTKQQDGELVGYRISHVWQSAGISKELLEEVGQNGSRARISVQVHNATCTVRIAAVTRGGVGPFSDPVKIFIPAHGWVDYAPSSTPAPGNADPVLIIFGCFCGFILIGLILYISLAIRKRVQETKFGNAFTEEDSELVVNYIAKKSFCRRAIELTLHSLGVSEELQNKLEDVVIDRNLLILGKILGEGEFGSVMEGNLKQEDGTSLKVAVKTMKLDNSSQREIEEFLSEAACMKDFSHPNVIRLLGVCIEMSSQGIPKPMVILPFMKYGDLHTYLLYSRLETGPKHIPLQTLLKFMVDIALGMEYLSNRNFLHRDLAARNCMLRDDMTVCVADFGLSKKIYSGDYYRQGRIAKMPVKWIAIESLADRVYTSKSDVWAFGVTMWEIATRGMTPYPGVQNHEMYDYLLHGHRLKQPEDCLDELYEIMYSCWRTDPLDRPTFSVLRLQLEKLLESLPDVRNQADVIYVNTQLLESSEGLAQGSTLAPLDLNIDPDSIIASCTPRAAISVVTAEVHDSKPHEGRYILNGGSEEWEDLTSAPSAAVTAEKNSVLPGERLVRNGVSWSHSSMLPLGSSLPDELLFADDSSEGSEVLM
Test: Inhibition of MER kinase activity in primary macrophages (Western blot)
Assay type: cell-based
Settings: primary macrophages from human PBMCs, 2 hours pretreatment, MAB8912 stimulation, N=2 (FIG. 4); read-out: IC50, pMER inhibition
Procedure: The ability of Compound 1 to modulate the activity of MER kinase in macrophages was evaluated.
Human peripheral blood mononuclear cells (PBMCs) were separated using Ficoll-Paque density gradient centrifugation and any remaining red blood cells (RBC) were lysed using 1×RBC Lysis Buffer (Cell Signaling Technology) for 5 minutes at room temperature. The PBMCs were washed with PBS before being enriched for monocytes using CD14 microbeads positive selection separation following the manufacturer's protocol as specified (AutoMacs Pro, Miltenyi Biotec, Bergisch Gladbach, Germany). […]
Macrophages were allowed to thaw on ice before being lysed with 250 μL/well of 1× Lysis Buffer (Cell Signaling Technology; #9803) and Halt protease and phosphatase inhibitors (ThermoFisher Scientific) for 1 hour at 4° C. […] Protein lysates were quantified using BCA Protein Assay Kit (Pierce, ThermoFisher Scientific; #23225). […] The membranes were washed again before the bands were detected with SuperSignal West Dura Extended Duration Chemiluminescent substrate (ThermoFisher Scientific) and were visualized using the Fluorochem M Digital Imager (Protein Simple, San Jose, Calif.).

## CC(C)C(=O)N1CCC(c2cc(-c3ccc(NC(=O)c4cn(C(C)C)c(=O)n(-c5ccccn5)c4=O)cc3)c3c(N)ncnn23)CC1 [Compound 1, N-(4-(4-Amino-7-(1-isobutyrylpiperidin-4-yl)pyrrolo[1,2-f][1,2,4]triazin-5-yl)phenyl)-1-isopropyl-2,4-dioxo-3-(pyridin-2-yl)-1,2,3,4-tetrahydropyrimidine-5-carboxamide]
  IC50: 1.6 ± 0.4 nM
